Laboratory results as given in ChEMBL document CHEMBL1641373, “Trishomocubane as a scaffold for the development of selective dopamine transporter (DAT) ligands” (Bioorg Med Chem Lett, 2011).
pKi: −log10 of the molar value.

What was measured:
[1] = biological target: T1, 5-hydroxytryptamine receptor 3A (Homo sapiens) (UniProt P46098); experiment: Inhibition of 5HT3 receptor at 10 uM
T1 sequence (whole entry): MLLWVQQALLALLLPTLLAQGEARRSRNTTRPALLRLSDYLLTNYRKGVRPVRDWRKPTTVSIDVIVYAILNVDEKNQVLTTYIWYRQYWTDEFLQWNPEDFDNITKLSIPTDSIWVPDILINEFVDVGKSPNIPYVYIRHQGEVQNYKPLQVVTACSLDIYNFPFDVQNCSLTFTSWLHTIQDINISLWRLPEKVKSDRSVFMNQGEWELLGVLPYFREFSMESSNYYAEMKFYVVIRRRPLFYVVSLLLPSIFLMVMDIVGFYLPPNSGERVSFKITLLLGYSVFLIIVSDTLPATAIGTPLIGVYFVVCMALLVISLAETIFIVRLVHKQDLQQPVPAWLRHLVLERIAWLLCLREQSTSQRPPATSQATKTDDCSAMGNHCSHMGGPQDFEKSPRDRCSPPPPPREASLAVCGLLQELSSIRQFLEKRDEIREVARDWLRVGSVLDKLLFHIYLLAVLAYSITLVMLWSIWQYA

[2] = biological target: T2, Muscarinic acetylcholine receptor M1 (Homo sapiens) (UniProt P11229); experiment: Inhibition of muscarinic M1 receptor at 10 uM
T2 sequence (whole entry): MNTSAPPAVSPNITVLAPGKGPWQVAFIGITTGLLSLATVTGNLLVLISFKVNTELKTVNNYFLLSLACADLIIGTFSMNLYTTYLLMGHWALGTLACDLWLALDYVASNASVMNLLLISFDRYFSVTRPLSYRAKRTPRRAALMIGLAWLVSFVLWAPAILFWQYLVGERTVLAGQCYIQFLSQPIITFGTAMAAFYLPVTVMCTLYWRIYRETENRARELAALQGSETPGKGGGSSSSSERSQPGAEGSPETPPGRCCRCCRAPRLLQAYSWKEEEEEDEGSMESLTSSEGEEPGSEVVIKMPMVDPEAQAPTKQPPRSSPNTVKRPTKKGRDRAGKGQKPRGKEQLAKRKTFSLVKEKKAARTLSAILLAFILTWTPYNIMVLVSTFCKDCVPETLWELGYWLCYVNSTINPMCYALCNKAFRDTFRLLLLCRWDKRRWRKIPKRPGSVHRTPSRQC

[3] = biological target: T3, Muscarinic acetylcholine receptor M2 (Homo sapiens) (UniProt P08172); experiment: Inhibition of muscarinic M2 receptor at 10 uM
T3 sequence (whole entry): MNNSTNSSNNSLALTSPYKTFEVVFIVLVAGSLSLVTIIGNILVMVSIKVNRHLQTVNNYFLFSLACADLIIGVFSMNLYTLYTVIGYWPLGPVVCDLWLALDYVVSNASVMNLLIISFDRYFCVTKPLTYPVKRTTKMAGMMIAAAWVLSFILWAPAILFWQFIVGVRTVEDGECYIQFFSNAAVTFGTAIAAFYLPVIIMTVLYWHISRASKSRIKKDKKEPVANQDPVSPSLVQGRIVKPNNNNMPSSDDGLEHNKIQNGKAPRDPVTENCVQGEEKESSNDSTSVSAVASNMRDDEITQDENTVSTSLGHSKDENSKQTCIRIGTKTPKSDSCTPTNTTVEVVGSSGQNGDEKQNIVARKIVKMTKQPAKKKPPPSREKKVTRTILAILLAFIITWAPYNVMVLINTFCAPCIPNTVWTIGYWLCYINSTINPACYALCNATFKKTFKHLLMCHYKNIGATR

[4] = biological target: T4, D(4) dopamine receptor (Homo sapiens) (UniProt P21917); experiment: Inhibition of dopamine D4 receptor at 10 uM
T4 sequence (whole entry): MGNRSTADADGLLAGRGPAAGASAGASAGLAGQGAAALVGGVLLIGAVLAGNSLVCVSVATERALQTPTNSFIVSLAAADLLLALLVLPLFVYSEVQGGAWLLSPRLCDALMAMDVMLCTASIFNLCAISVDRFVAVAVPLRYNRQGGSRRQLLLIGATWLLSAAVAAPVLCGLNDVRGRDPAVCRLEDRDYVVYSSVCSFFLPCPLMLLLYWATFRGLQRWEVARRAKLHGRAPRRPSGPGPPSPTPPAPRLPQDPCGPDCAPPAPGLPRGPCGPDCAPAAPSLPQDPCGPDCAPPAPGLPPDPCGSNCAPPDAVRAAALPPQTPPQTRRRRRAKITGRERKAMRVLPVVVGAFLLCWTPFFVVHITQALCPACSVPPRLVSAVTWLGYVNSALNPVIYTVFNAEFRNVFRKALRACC

[5] = biological target: D(3) dopamine receptor (Homo sapiens, UniProt P35462); experiment: Inhibition of dopamine D3 receptor
Chain of D(3) dopamine receptor (P35462 whole entry): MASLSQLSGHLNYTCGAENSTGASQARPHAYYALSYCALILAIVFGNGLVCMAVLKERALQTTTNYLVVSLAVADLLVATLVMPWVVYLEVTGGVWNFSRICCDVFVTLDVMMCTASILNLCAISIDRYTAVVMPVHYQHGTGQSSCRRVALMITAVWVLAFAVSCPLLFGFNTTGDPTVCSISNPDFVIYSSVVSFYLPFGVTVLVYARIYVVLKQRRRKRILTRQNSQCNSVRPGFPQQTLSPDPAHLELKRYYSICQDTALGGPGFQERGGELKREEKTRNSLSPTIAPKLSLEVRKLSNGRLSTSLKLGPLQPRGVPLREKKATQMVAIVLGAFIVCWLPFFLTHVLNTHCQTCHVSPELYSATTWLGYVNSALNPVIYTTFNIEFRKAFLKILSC

[6] = biological target: 5-hydroxytryptamine receptor 1B (Homo sapiens) (UniProt P28222); experiment: Inhibition of 5HT1B receptor at 10 uM
Chain of 5-hydroxytryptamine receptor 1B (Homo sapiens) (P28222 whole entry): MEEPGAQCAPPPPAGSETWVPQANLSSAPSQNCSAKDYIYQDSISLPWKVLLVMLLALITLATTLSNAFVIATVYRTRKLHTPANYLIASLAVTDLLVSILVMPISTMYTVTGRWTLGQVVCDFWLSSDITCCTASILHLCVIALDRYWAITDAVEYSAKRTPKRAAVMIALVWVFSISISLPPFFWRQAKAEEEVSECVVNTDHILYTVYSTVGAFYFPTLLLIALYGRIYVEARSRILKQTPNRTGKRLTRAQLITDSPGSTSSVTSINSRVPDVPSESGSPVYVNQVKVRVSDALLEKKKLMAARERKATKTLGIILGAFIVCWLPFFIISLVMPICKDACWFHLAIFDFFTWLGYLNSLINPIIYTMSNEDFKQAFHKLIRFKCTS

[7] = biological target: D(2) dopamine receptor (Homo sapiens) (UniProt P14416); experiment: Inhibition of dopamine D2 receptor at 10 uM
Chain of D(2) dopamine receptor (Homo sapiens) (P14416 whole entry): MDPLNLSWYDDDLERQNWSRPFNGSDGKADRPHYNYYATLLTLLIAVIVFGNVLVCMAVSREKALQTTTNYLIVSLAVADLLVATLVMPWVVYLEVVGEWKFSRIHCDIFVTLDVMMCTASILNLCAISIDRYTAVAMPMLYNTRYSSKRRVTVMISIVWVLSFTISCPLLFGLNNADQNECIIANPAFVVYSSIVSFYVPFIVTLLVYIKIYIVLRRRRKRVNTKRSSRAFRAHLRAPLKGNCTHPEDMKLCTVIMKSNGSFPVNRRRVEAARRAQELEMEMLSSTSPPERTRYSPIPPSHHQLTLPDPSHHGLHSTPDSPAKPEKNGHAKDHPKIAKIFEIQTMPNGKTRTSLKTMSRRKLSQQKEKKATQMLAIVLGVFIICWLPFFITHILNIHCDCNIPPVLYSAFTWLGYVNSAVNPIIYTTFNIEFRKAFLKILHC

[8] = biological target: Beta-2 adrenergic receptor (Homo sapiens) (UniProt P07550); experiment: Inhibition of beta2 adrenergic receptor at 10 uM
Chain of Beta-2 adrenergic receptor (Homo sapiens) (P07550 whole entry, looked up): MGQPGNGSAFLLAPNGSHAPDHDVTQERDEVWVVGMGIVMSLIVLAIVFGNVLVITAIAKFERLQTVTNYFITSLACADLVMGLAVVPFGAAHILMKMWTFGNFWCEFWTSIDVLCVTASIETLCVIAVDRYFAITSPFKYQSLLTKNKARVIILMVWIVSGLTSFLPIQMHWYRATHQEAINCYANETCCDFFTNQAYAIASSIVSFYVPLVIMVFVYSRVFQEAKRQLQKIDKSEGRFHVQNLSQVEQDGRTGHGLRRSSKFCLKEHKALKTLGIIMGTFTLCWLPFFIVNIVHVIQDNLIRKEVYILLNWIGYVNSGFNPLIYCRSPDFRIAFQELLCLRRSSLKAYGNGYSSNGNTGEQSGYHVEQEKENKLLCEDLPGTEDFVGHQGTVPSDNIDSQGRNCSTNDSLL

[9] = biological target: 5-hydroxytryptamine receptor 7 (Homo sapiens) (UniProt P34969); experiment: Inhibition of 5HT7 receptor at 10 uM
Chain of 5-hydroxytryptamine receptor 7 (Homo sapiens) (P34969 whole entry): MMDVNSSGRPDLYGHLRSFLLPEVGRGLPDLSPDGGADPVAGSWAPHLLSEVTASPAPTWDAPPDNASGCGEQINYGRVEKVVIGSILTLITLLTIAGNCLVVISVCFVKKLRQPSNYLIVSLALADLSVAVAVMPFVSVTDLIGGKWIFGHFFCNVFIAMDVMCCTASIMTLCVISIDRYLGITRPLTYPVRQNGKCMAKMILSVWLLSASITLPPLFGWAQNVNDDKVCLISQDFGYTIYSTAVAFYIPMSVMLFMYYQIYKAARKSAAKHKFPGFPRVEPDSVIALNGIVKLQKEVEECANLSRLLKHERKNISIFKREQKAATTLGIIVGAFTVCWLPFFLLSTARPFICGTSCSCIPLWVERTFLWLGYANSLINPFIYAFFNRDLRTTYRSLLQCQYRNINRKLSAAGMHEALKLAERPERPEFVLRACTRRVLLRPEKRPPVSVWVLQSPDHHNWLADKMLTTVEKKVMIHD

[10] = biological target: Beta-3 adrenergic receptor (Homo sapiens) (UniProt P13945); experiment: Inhibition of beta3 adrenergic receptor at 10 uM
Chain of Beta-3 adrenergic receptor (Homo sapiens) (P13945 whole entry, looked up): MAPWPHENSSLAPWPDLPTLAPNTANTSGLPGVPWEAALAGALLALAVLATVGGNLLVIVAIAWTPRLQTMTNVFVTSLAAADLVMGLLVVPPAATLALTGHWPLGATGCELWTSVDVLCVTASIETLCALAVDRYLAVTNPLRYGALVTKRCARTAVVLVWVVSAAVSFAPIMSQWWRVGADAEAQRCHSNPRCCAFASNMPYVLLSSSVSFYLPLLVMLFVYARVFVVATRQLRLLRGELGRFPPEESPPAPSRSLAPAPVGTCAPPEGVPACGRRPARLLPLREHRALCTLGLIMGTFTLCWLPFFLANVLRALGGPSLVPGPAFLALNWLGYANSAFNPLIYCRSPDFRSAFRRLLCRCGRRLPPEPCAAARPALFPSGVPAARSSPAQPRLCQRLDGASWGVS

[11] = biological target: T5, Muscarinic acetylcholine receptor M5 (Homo sapiens) (UniProt P08912); experiment: Inhibition of muscarinic M5 receptor at 10 uM
T5 sequence (whole entry): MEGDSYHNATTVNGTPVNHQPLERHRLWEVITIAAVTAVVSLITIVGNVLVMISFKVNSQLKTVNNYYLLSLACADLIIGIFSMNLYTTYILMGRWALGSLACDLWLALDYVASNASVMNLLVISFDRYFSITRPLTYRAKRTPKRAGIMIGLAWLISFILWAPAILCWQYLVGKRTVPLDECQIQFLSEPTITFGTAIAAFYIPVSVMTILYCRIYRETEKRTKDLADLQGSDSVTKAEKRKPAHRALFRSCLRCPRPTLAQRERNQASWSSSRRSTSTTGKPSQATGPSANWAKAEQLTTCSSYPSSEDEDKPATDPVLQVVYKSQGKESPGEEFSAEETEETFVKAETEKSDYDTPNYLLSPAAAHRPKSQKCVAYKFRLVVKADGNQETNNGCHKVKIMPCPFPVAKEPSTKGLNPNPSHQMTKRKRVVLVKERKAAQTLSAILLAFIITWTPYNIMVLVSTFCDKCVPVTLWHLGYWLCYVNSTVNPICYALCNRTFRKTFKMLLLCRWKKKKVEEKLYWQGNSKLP

Fc1cccc(CN[C@H]2C3C4CC5C6C4CC3C6C52)c1 (stereo partly specified)
5.15: pKi [5]
< 50%: inhibition [1] | inhibition [2] | inhibition [3] | inhibition [4] | inhibition [6] | inhibition [7] | inhibition [8] | inhibition [9] | inhibition [10] | inhibition [11]

CN(CCc1cccc(F)c1)[C@H]1C2C3CC4C5C3CC2C5C41 (stereo partly specified)
< 50%: inhibition [1] | inhibition [2] | inhibition [3] | inhibition [4] | inhibition [6] | inhibition [7] | inhibition [8] | inhibition [9] | inhibition [10] | inhibition [11]
< 5.00: pKi [5]

CN(Cc1cccc(F)c1)[C@H]1C2C3CC4C5C3CC2C5C41 (stereo partly specified)
< 50%: inhibition [1] | inhibition [2] | inhibition [3] | inhibition [4] | inhibition [6] | inhibition [7] | inhibition [8] | inhibition [9] | inhibition [10] | inhibition [11]

Fc1cccc(CCN[C@H]2C3C4CC5C6C4CC3C6C52)c1 (stereo partly specified)
< 50%: inhibition [1] | inhibition [2] | inhibition [4] | inhibition [6] | inhibition [7] | inhibition [8] | inhibition [9] | inhibition [10]
5.28: pKi [5]
